Laboratory results taken from publication PMC9701179, “New tricyclic systems as photosensitizers towards triple negative breast cancer cells” (Archives of Pharmacal Research, 2022).
Entries after “also recorded” stand apart in the source; their conditions may differ.

Experiments:
MDA-MB-231 cells [1] = experiment: Intracellular ROS production (CM-H2DCFDA) under UVA; format: cell-based, human; details: MDA-MB-231, 25 µM, 90 min, UVA 2.0 J/cm^2; antimycin 3 µM positive control
Protocol: The production of ROS was measured in MDA-MB-231 cells (10^4 per well) grown for 24 h in a 96-well plate in RPMI medium without phenol red (Merk, Germany). Cells were then washed with PBS and loaded with 10 μM 5-(and-6)-chloromethyl-2′,7′-dichlorodihydrofluorescein diacetate acetyl ester (CM–H2DCFDA) (Molecular Probes-Invitrogen, Eugene, OR) for 45 min, in the dark. Afterwards, cells were washed with PBS and incubated with tested compounds (25 µM) for 90 min and after that exposed to UVA light (2.0 J/cm^2). Fluorescence increase was estimated utilizing the wavelengths of 485 nm (excitation) and 527 nm (emission) in a VICTOR X3 (PerkinElmer, USA) plate reader. Antimycin (3 μM, Merk), a potent inhibitor of Complex III in the electron transport chain, was used as positive control.
ROS production under light (UVA, 2.0 J/cm^2) was evaluated in MDA-MB-231 cell samples treated with increasing concentrations of tested compounds or antimycin, a potent inhibitor of Complex III of mitochondria electron chain, used as a positive control under the same experimental conditions (Fig. 4).
Fig. 4 Cellular ROS production (A) and total thiol redox state (B). A Effect of UVA activated tested compounds (25 µM) or antimycin (3 µM) on hydrogen peroxide formation in MDA-MB-231 cancer cells. B Sulfhydryl content in MDA-MB-231 cancer cells incubated for 24 h with UVA activated tested compounds. The sulfhydryl group amount was determined by the DTNB assay. Error bars indicate S.D

MDA-MB-231 cells [2] = experiment: Cell death induction (Hoechst / PI staining, confocal microscopy); format: cell-based, human; details: MDA-MB-231, IC50 doses, 24 h
Protocol: MDA-MB-231 cells were seeded into 8-well tissue-culture slides (BD Falcon, Bedford, MA, USA) at 5 × 10^4 cells/well (0.8 cm^2). After 24 h, the cells were washed twice with PBS and, following 24 h of treatment with IC50 doses of the tested compound, cells were stained for 5 min with 10 µg/mL of Hoechst 33258 (20-(4-hydroxyphenyl)-5-(4-methyl-1-piperazinyl)-2,50-bi-1H-benzimidazole trihydrochloride hydrate, Sigma-Aldrich, St.Louis, MI, USA) or propidium iodide (PI, Sigma-Aldrich, St.Louis, MI, USA) in PBS. Samples were examined at × 5 and × 40 magnification in a Zeiss LSM 800 confocal microscope using the Zeiss ZEN 2.3 software system.
Fig. 5 Effects on mitochondrial membrane potential (A) and cell death induction (B) in human breast MDA-MB-231 cancer cells. A Cells were treated with 7h and 8e and stained with TMRM (10 nM). Fluorescence was estimated at 490 nm (excitation) and 590 nm (emission). Data are the means of five independent experiments. Error bars indicate S.D. * P < 0.05. B Cells were treated with concentrations of 7h and 8e equal to IC50 for 24 h and stained with the fluorescent dyes Hoechst 33342 and PI
Loss of mitochondrial transmembrane potential is a crucial step in the activation of intrinsic apoptotic cell death. […] MDA-MB-231 cells were treated with IC50 doses of tested compounds and apoptotic cell death induction was confirmed through a Hoechst 33342 staining assay.

Compound	Cellular ROS production (hydrogen peroxide formation) (MDA-MB-231 cells [1])	Apoptotic cell death induction (Hoechst 33342 staining) (MDA-MB-231 cells [2])	Necrosis induction (PI staining) (MDA-MB-231 cells [2])
CCOC(=O)c1ccc2n1CCCc1cc(S(=O)(=O)c3ccccc3)c(OC)nc1-2 [Compound 8e, Ethyl 3-(benzenesulfonyl)-2-methoxy-6,7-dihydro-5H-pyrido[2,3-c]pyrrolo[1,2-a]azepine-9-carboxylate]	highest increase in cellular ROS production	positive to Hoechst 33342 staining	poor stained with PI
CCOC(=O)c1ccc2n1CCc1cc(S(=O)(=O)c3ccccc3)c(OC)nc1-2 [Compound 7h, Ethyl 3-(benzenesulfonyl)-2-methoxy-5,6-dihydropyrrolo[1,2-h][1,7]naphthyridine-8-carboxylate]	highest increase in cellular ROS production; also recorded: hydrogen peroxide content comparable to that induced by antimycin	positive to Hoechst 33342 staining	poor stained with PI
